From patent US20260035387A1 (BIOGEN MA INC., priority 2022, published 2026)
pIC50: −log10 of the molar value.

System: mutant Huntington (HTT) protein
Experiment: HTT Mutant HTRF iPSC assay (mHTT protein lowering)
Type: cell-based
Conditions: human iPSC derived from a HTT patient with a poly-Q49 mutation

Structure (SMILES) | pIC50
COc1c(NC(=O)c2nc3ccc(N4CCC(N5CCC5)C4)nc3s2)cn2cc(C)nc2c1F (racemic) [Compound 126, 5-(3-(azetidin-1-yl)pyrrolidin-1-yl)-N-(8-fluoro-7-methoxy-2-methylimidazo[1,2-a]pyridin-6-yl)thiazolo[5,4-b]pyridine-2-carboxamide] | > 7.00
Cc1cn2cc(NC(=O)c3cc4ncc(C5CCC(N)CC5)nc4s3)cc(F)c2n1 (racemic) [Compound 141, 3-(4-aminocyclohexyl)-N-(8-fluoro-2-methylimidazo[1,2-a]pyridin-6-yl)thieno[2,3-b]pyrazine-6-carboxamide] | 5.05 to 6.00
Cc1cn2cc(NC(=O)c3cc4ncc(C5=CCCC(N)C5)nc4s3)cc(F)c2n1 (racemic) [Compound 143, 3-(5-aminocyclohex-1-en-1-yl)-N-(8-fluoro-2-methylimidazo[1,2-a]pyridin-6-yl)thieno[2,3-b]pyrazine-6-carboxamide] | 6.00 to 7.00
Cc1cn2cc(NC(=O)c3cc4ncc(C5=CC(N)CCC5)nc4s3)cc(F)c2n1 (racemic) [Compound 145, 3-(3-aminocyclohex-1-en-1-yl)-N-(8-fluoro-2-methylimidazo[1,2-a]pyridin-6-yl)thieno[2,3-b]pyrazine-6-carboxamide] | 6.00 to 7.00
Cc1cn2cc(NC(=O)c3cc4ccc(OC5C[C@@H](C)N[C@@H](C)C5)nc4s3)cc(F)c2n1 (mixture of isomers) [Compound 156] | > 7.00
Cc1cn2cc(NC(=O)c3cc4ccc(OC5CCNC(C)(C)C5)nc4s3)cc(F)c2n1 (racemic) [Compound 158, 6-((2,2-dimethylpiperidin-4-yl)oxy)-N-(8-fluoro-2-methylimidazo[1,2-a]pyridin-6-yl)thieno[2,3-b]pyridine-2-carboxamide] | > 7.00
Cc1cn2cc(NC(=O)c3cc4ccc(OC5CCN(C)C5)nc4s3)cc(F)c2n1 (racemic) [Compound 159, N-(8-fluoro-2-methylimidazo[1,2-a]pyridin-6-yl)-6-((1-methylpyrrolidin-3-yl)oxy)thieno[2,3-b]pyridine-2-carboxamide] | > 7.00
CCN1CCC(Oc2ccc3cc(C(=O)Nc4cc(F)c5nc(C)cn5c4)sc3n2)C1 (racemic) [Compound 161, 6-((1-ethylpyrrolidin-3-yl)oxy)-N-(8-fluoro-2-methylimidazo[1,2-a]pyridin-6-yl)thieno[2,3-b]pyridine-2-carboxamide] | > 7.00
COc1c(NC(=O)c2cc3ccc(N4CCC(N5CCC5)C4)nc3s2)cc2cn(C)nc2c1F (racemic) [Compound 180, rac-(R)-6-(3-(azetidin-1-yl)pyrrolidin-1-yl)-N-(7-fluoro-6-methoxy-2-methyl-2H-indazol-5-yl)thieno[2,3-b]pyridine-2-carboxamide] | > 7.00
Cc1cn2cc(NC(=O)c3cc4ccc(N5CC[C@@H]6CN(C)C[C@@H]65)nc4s3)nc(C)c2n1 (racemic) [Compound 194, N-(2,8-dimethylimidazo[1,2-a]pyrazin-6-yl)-6-((3aR,6aR)-5-methylhexahydropyrrolo[3,4-b]pyrrol-1(2H)-yl)thieno[2,3-b]pyridine-2-carboxamide] | > 7.00
Cc1cn2cc(NC(=O)c3cc4ccc(N5CCC6CNCC65)nc4s3)nc(C)c2n1 (racemic) [Compound 215, N-(2,8-dimethylimidazo[1,2-a]pyrazin-6-yl)-6-(hexahydropyrrolo[3,4-b]pyrrol-1(2H)-yl)thieno[2,3-b]pyridine-2-carboxamide] | > 7.00
COc1c(NC(=O)c2cc3ccc(N4CCC5(CCCN5C)C4)nc3s2)cc2cn(C)nc2c1F (racemic) [Compound 231, N-(7-fluoro-6-methoxy-2-methyl-2H-indazol-5-yl)-6-(1-methyl-1,7-diazaspiro[4.4]nonan-7-yl)thieno[2,3-b]pyridine-2-carboxamide] | > 7.00
COc1cc2nn(C)cc2cc1NC(=O)c1cc2ccc(N[C@@H]3CC(C)(C)NC(C)(C)[C@@H]3F)nc2s1 (racemic) [Compound 260, 6-(((3R,4R)-3-fluoro-2,2,6,6-tetramethylpiperidin-4-yl)amino)-N-(6-methoxy-2-methyl-2H-indazol-5-yl)thieno[2,3-b]pyridine-2-carboxamide] | > 7.00
COc1cc2nn(C)cc2cc1NC(=O)c1cc2ccc(N[C@H]3CC(C)(C)NC(C)(C)[C@@H]3F)nc2s1 (racemic) [Compound 261, 6-(((3R,4S)-3-fluoro-2,2,6,6-tetramethylpiperidin-4-yl)amino)-N-(6-methoxy-2-methyl-2H-indazol-5-yl)thieno[2,3-b]pyridine-2-carboxamide] | > 7.00
Cc1cn2cc(NC(=O)c3cc4ccc([C@H]5CCCNC5)nc4s3)cc(F)c2n1 (single isomer, unassigned) [Compound 81] | > 7.00
Cc1cn2cc(NC(=O)c3cc4ccc([C@@H]5CCCNC5)nc4s3)cc(F)c2n1 (single isomer, unassigned) [Compound 82] | > 7.00

Structure (SMILES) | pIC50
Cc1cn2cc(NC(=O)c3nc4ccc(N5CCC6(CCN6)C5)nc4s3)cc(F)c2n1 (single isomer, unassigned) [Compound 97] | > 7.00
Cc1cn2cc(NC(=O)c3nc4ccc(N5CCC(N6CCC6)C5)nc4s3)cc(F)c2n1 (single isomer, unassigned) [Compound 101] | > 7.00
Cc1cn2cc(NC(=O)c3nc4ccc(N5CCC6(CCN6)C5)nc4s3)cc(F)c2n1 (single isomer, unassigned) [Compound 111] | > 7.00
COc1c(NC(=O)c2nc3ccc(N4CCC5(CCCN5C)C4)nc3s2)cc2cn(C)nc2c1F (single isomer, unassigned) [Compound 124] | > 7.00
COc1c(NC(=O)c2nc3ccc(N4CCC5(CCCN5C)C4)nc3s2)cn2cc(C)nc2c1F (single isomer, unassigned) [Compound 127] | > 7.00
COc1c(NC(=O)c2nc3ccc(N4CCC5(CCCN5C)C4)nc3s2)cn2cc(C)nc2c1F (single isomer, unassigned) [Compound 128] | > 7.00
COc1cc(NC(=O)c2cc3nc(N4CCC5(CCCN5C)C4)ccc3o2)cn2cc(C)nc12 (single isomer, unassigned) [Compound 174] | > 7.00
COc1cn2nc(C)cc2cc1NC(=O)c1cc2nc(N3CCC4(CCCN4C)C3)ccc2o1 (single isomer, unassigned) [Compound 175] | > 7.00
COc1cc2nn(C)cc2cc1NC(=O)c1cc2ccc(C3CCN(C)C3)nc2s1 (single isomer, unassigned) [Compound 177] | > 7.00
Cc1cn2cc(NC(=O)c3cc4ccc(C5CCN(C)C5)nc4s3)cc(F)c2n1 (single isomer, unassigned) [Compound 181] | > 7.00
COc1cc2nn(C)cc2cc1NC(=O)c1cc2ccc(C3CCCN(C)C3)nc2s1 (single isomer, unassigned) [Compound 185] | > 7.00
COc1cc2nn(C)cc2cc1NC(=O)c1cc2ccc(C3CCCN(C)C3)nc2s1 (single isomer, unassigned) [Compound 186] | > 7.00
Cc1cn2cc(NC(=O)c3cc4ccc(C5CCCN(C)C5)nc4s3)nc(C)c2n1 (single isomer, unassigned) [Compound 187] | 6.00 to 7.00
COc1nc(NC(=O)c2cc3ccc(N4CCC(N(C)C)C4)nc3s2)cn2cc(C)nc12 (single isomer, unassigned) [Compound 198] | > 7.00
COc1nc(NC(=O)c2cc3ccc(N4CCC(N(C)C)C4)nc3s2)cn2cc(C)nc12 (single isomer, unassigned) [Compound 199] | > 7.00
